A short description of data set [1]: Determination of the microsomal half-life / microsomal clearance, human liver microsomes. Type of data set: in vitro ADME. To be noted: 0.5 μM test substance, 0.25 mg of microsomal protein/ml, pH 7.4, 37° C. How it is done:
(§1) b) Determination of the Microsomal Half-Life:
(§2) The metabolic stability of the compounds of the invention was determined in the following assay.
(§3) The test substances were incubated in a concentration of 0.5 μM as follows:
(§4) 0.5 μM test substance are preincubated together with liver microsomes from different species (from rat, human or other species) (0.25 mg of microsomal protein/ml) in 0.05 M potassium phosphate buffer of pH 7.4 in microtiter plates at 37° C. for 5 min. The reaction is started by adding NADPH (1 mg/mL). After 0, 5, 10, 15, 20 and 30 min, 50 μl aliquots are removed, and the reaction is immediately stopped and cooled with the same volume of acetonitrile. The samples are frozen until analyzed. The remaining concentration of undegraded test substance is determined by MSMS. The half-life (T½) is determined from the gradient of the signal of test substance/unit time plot, it being possible to calculate the half-life of the test substance, assuming first order kinetics, from the decrease in the concentration of the compound with time. The microsomal clearance (mCl) is calculated from mCl=ln 2/T½/(content of microsomal protein in mg/ml)×1000 [ml/min/mg]
On the technique in general: Liver microsomes are vesicles of endoplasmic reticulum, rich in cytochrome P450 enzymes.

A short description of data set [2]: Determination of the microsomal half-life / microsomal clearance, rat liver microsomes. Type of data set: in vitro ADME. To be noted: 0.5 μM test substance, 0.25 mg of microsomal protein/ml, pH 7.4, 37° C. As to the method:
as §1, §2, §3, §4

In the next data set the target is PDE10A (Homo sapiens (Human), UniProt Q9Y233). The data set is described as follows: Measurement of PDE activity (recombinant PDE, cAMP HTRF). It is filed as biochemical. As to conditions: 20 nM cyclic nucleotide substrate, 60 minutes at 29 C. The gist of the method: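 Recombinant human PDE10A in 20 mM Tris-HCl pH 7.5, 10 mM MgCl2, 0.1% BSA with 20 nM cyclic nucleotide substrate; reaction 60 min at 29 C after compound preincubation with enzyme. Residual cAMP detected by HTRF (cAMP-d2/anti-cAMP cryptate); IC50 from inhibitor concentration versus PDE activity.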
Sequence of PDE10A (Q9Y233 whole entry, species assumed): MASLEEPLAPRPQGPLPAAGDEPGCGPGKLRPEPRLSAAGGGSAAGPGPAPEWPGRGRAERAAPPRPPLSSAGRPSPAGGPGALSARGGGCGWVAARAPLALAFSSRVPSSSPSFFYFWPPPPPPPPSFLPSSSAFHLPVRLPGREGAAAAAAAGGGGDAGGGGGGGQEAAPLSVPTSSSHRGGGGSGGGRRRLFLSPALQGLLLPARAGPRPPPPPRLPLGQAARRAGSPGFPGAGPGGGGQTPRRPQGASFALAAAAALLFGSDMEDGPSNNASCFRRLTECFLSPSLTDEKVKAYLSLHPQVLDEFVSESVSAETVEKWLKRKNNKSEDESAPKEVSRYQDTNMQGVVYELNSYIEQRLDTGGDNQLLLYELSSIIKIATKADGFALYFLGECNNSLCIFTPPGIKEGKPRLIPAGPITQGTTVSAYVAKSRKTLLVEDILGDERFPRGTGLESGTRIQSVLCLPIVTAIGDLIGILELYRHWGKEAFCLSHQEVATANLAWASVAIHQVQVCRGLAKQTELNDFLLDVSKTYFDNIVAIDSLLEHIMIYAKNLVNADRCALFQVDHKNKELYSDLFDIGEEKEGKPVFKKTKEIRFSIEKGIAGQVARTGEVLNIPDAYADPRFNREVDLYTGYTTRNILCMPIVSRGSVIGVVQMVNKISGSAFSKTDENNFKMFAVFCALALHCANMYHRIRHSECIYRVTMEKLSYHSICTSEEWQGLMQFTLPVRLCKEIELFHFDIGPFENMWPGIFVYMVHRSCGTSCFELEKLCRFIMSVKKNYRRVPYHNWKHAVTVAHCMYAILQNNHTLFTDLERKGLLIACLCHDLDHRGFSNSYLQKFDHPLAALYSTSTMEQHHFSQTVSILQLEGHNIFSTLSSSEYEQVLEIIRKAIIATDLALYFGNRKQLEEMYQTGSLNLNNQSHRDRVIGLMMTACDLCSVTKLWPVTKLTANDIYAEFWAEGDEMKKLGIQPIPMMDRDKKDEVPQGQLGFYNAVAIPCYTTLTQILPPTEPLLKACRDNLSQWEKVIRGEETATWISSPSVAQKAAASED
Background: Time-resolved FRET reads energy transfer from a long-lived donor to a nearby acceptor.

As to `CCn1cc(C(=O)NCc2csc(C)n2)c2cc(OC)c(OC)cc2c1=O` [Example 316, 2-Ethyl-6,7-dimethoxy-N-[(2-methylthiazol-4-yl)methyl]-1-oxo-isoquinoline-4-carboxamide], the “Human mCl” value in data set [1] was “++ (<100 μl min^−1 mg^−1)”. The “Rat mCl” value in data set [2] is on record as “++ (<100 μl min^−1 mg^−1)”. Further, the IC50 at PDE10A fell in the range of 0.2 to 0.5 µM.
For `CCC(CC)n1cc(C(=O)NC2CCc3ccc(OC)cc32)c2cc(OC)c(OC)cc2c1=O` (stereo not drawn) [Example 256, 6,7-Dimethoxy-N-(6-methoxy-2,3-dihydro-1H-inden-1-yl)-1-oxo-2-(pentan-3-yl)-1,2-dihydroisoquinoline-4-carboxamide], the “Human mCl” value in data set [1] is on record as “∘ (>220 μl min^−1 mg^−1)”. In addition, the “Rat mCl” value in data set [2] is “+ (100-220 μl min^−1 mg^−1)”. Also, at PDE10A, the IC50 was less than 0.1 µM.
Taken in the same sequence, the figures for `CCC(CC)n1cc(C(=O)N[C@H]2CCc3ccccc32)c2cc(OC)c(OC)cc2c1=O` [Example 192, 2-(1-Ethyl-propyl)-6,7-dimethoxy-1-oxo-1,2-dihydro-isoquinoline-4-carboxylic acid (S)-indan-1-ylamide] were “∘ (>220 μl min^−1 mg^−1)”, “+ (100-220 μl min^−1 mg^−1)” and less than 0.1 µM.
Consider `COc1cc2c(C(=O)NC3CCc4ccccc43)cn(C(C)C)c(=O)c2cc1OC` (stereo not drawn) [Example 198, 2-Isopropyl-6,7-dimethoxy-1-oxo-1,2-dihydro-isoquinoline-4-carboxylic acid indan-1-ylamide], for which the “Human mCl” value in data set [1] is given as “+ (100-220 μl min^−1 mg^−1)”. The “Rat mCl” value in data set [2] was “++ (<100 μl min^−1 mg^−1)”. Moreover, the IC50 on PDE10A lay within 0.2 to 0.5 µM.
On the same counts, the results for `CCC(CC)n1cc(C(=O)NCc2nncs2)c2cc(OC)c(OC)cc2c1=O` [Example 201, 2-(1-Ethyl-propyl)-6,7-dimethoxy-1-oxo-1,2-dihydro-isoquinoline-4-carboxylic acid ([1,3,4]thiadiazol-2-ylmethyl)-amide] are “++ (<100 μl min^−1 mg^−1)”, “++ (<100 μl min^−1 mg^−1)” and 0.2 to 0.5 µM.
Taken in the same sequence, the figures for `CCC(CC)n1cc(C(=O)NCc2ncc(C)s2)c2cc(OC)c(OC)cc2c1=O` [Example 239, 6,7-Dimethoxy-N-((5-methylthiazol-2-yl)methyl)-1-oxo-2-(pentan-3-yl)-1,2-dihydroisoquinoline-4-carboxamide] were “+ (100-220 μl min^−1 mg^−1)”, “+ (100-220 μl min^−1 mg^−1)” and 0.1 to 0.2 µM.
On the same counts, the results for `CCC(CC)n1cc(C(=O)NC2CCc3ncccc32)c2cc(OC)c(OC)cc2c1=O` (stereo not drawn) [Example 186, 2-(1-Ethyl-propyl)-6,7-dimethoxy-1-oxo-1,2-dihydro-isoquinoline-4-carboxylic acid (6,7-dihydro-5H-[1]pyrindin-5-yl)-amide] are “++ (<100 μl min^−1 mg^−1)”, “++ (<100 μl min^−1 mg^−1)” and 0.1 to 0.2 µM.
As to `CCC(CC)n1cc(C(=O)NCc2ccccc2S(=O)(=O)N2CCOCC2)c2cc(OC)c(OC)cc2c1=O` [Example 202, 2-(1-Ethyl-propyl)-6,7-dimethoxy-1-oxo-1,2-dihydro-isoquinoline-4-carboxylic acid 2-(morpholine-4-sulfonyl)-benzylamide], the “Human mCl” value in data set [1] is “∘ (>220 μl min^−1 mg^−1)”. Besides, the “Rat mCl” value in data set [2] is “+ (100-220 μl min^−1 mg^−1)”. Besides, the IC50 on PDE10A was less than 0.1 µM.
Taken in the same sequence, the figures for `CCc1ccc(CNC(=O)c2cn(CC)c(=O)c3cc(OC)c(OC)cc23)cc1` [Example 313, 2-Ethyl-N-[(4-ethylphenyl)methyl]-6,7-dimethoxy-1-oxo-isoquinoline-4-carboxamide] were “++ (<100 μl min^−1 mg^−1)”, “++ (<100 μl min^−1 mg^−1)” and 0.2 to 0.5 µM.
On the same counts, the results for `CCC(CC)n1cc(C(=O)NCc2c(C)noc2C)c2cc(OC)c(OC)cc2c1=O` [Example 238, N-((3,5-Dimethylisoxazol-4-yl)methyl)-6,7-dimethoxy-1-oxo-2-(pentan-3-yl)-1,2-dihydroisoquinoline-4-carboxamide] are “++ (<100 μl min^−1 mg^−1)”, “+ (100-220 μl min^−1 mg^−1)” and 0.1 to 0.2 µM.
Taken in the same sequence, the figures for `CCn1cc(C(=O)NCc2cc(C)cs2)c2cc(OC)c(OC)cc2c1=O` [Example 317, 2-Ethyl-6,7-dimethoxy-N-[(4-methyl-2-thienyl)methyl]-1-oxo-isoquinoline-4-carboxamide] were “++ (<100 μl min^−1 mg^−1)”, “+ (100-220 μl min^−1 mg^−1)” and 0.1 to 0.2 µM.
`CCC(CC)n1cc(C(=O)NCC2CCCCC2)c2cc(OC)c(OC)cc2c1=O` [Example 190, 2-(1-Ethyl-propyl)-6,7-dimethoxy-1-oxo-1,2-dihydro-isoquinoline-4-carboxylic acid cyclohexylmethyl-amide]: in data set [1], the “Human mCl” value was “∘ (>220 μl min^−1 mg^−1)”. Further, the “Rat mCl” value in data set [2] is on record as “+ (100-220 μl min^−1 mg^−1)”. In addition, the IC50 at PDE10A fell in the range of 0.1 to 0.2 µM.
On the same counts, the results for `CCC(CC)n1cc(C(=O)NCc2nccs2)c2cc(OC)c(OC)cc2c1=O` [Example 228, 2-(1-Ethyl-propyl)-6,7-dimethoxy-1-oxo-1,2-dihydro-isoquinoline-4-carboxylic acid (thiazol-2-ylmethyl)-amide] are “++ (<100 μl min^−1 mg^−1)”, “++ (<100 μl min^−1 mg^−1)” and 0.1 to 0.2 µM.
On the same counts, the results for `CCC(CC)n1cc(C(=O)NCc2cc(C)on2)c2cc(OC)c(OC)cc2c1=O` [Example 244, 6,7-Dimethoxy-N-((5-methylisoxazol-3-yl)methyl)-1-oxo-2-(pentan-3-yl)-1,2-dihydroisoquinoline-4-carboxamide] are “++ (<100 μl min^−1 mg^−1)”, “++ (<100 μl min^−1 mg^−1)” and 0.2 to 0.5 µM.
Taken in the same sequence, the figures for `CCC(CC)n1cc(C(=O)NCc2ccccn2)c2cc(OC)c(OC)cc2c1=O` [Example 263, 6,7-Dimethoxy-1-oxo-2-(pentan-3-yl)-N-(pyridin-2-ylmethyl)-1,2-dihydroisoquinoline-4-carboxamide] were “++ (<100 μl min^−1 mg^−1)”, “++ (<100 μl min^−1 mg^−1)” and 0.1 to 0.2 µM.
For the compound `CCn1cc(C(=O)Nc2cccc(OC)c2)c2cc(OC)c(OC)cc2c1=O` [Example 147, 2-Ethyl-6,7-dimethoxy-N-(3-methoxyphenyl)-1-oxo-1,2-dihydroisoquinoline-4-carboxamide], the “Human mCl” value in data set [1] is “++ (<100 μl min^−1 mg^−1)”. Besides, the “Rat mCl” value in data set [2] was “++ (<100 μl min^−1 mg^−1)”. The IC50 on PDE10A is 0.1 to 0.2 µM.
For the compound `CCC(CC)n1cc(C(=O)NCc2ccc(C)o2)c2cc(OC)c(OC)cc2c1=O` [Example 251, 6,7-Dimethoxy-N-((5-methylfuran-2-yl)methyl)-1-oxo-2-(pentan-3-yl)-1,2-dihydroisoquinoline-4-carboxamide], the “Human mCl” value in data set [1] is reported as “+ (100-220 μl min^−1 mg^−1)”. Also, in data set [2], the “Rat mCl” value is given as “∘ (>220 μl min^−1 mg^−1)”. In addition, on PDE10A, the IC50 was 0.1 to 0.2 µM.
On the same counts, the results for `CCn1cc(C(=O)NC2CCc3ccccc32)c2cc(OC)c(OC)cc2c1=O` (stereo not drawn) [Example 40, 2-Ethyl-6,7-dimethoxy-1-oxo-1,2-dihydro-isoquinoline-4-carboxylic acid indan-1-ylamide] are “++ (<100 μl min^−1 mg^−1)”, “++ (<100 μl min^−1 mg^−1)” and 0.1 to 0.2 µM.
Taken in the same sequence, the figures for `CCn1cc(C(=O)NCc2ccc(C3CC3)cc2)c2cc(OC)c(OC)cc2c1=O` [Example 318, N-[(4-Cyclopropylphenyl)methyl]-2-ethyl-6,7-dimethoxy-1-oxo-isoquinoline-4-carboxamide] were “++ (<100 μl min^−1 mg^−1)”, “++ (<100 μl min^−1 mg^−1)” and 0.2 to 0.5 µM.
On the same counts, the results for `CCn1cc(C(=O)NC2CCc3ccc(F)cc32)c2cc(OC)c(OC)cc2c1=O` (stereo not drawn) [Example 171, 2-Ethyl-N-(6-fluoro-2,3-dihydro-1H-inden-1-yl)-6,7-dimethoxy-1-oxo-1,2-dihydroisoquinoline-4-carboxamide] are “++ (<100 μl min^−1 mg^−1)”, “++ (<100 μl min^−1 mg^−1)” and 0.2 to 0.5 µM.
With `CCC(C)n1cc(C(=O)NC2CCc3ccccc32)c2cc(OC)c(OC)cc2c1=O` (stereo not drawn) [Example 197, 2-sec-Butyl-6,7-dimethoxy-1-oxo-1,2-dihydro-isoquinoline-4-carboxylic acid indan-1-ylamide], in data set [1], the “Human mCl” value is on record as “∘ (>220 μl min^−1 mg^−1)”. Besides, in data set [2], the “Rat mCl” value is listed as “+ (100-220 μl min^−1 mg^−1)”. The IC50 at PDE10A lay within 0.1 to 0.2 µM.
On the same counts, the results for `CCCCNC(=O)c1cn(CC)c(=O)c2cc(OC)c(OCCc3ccc4ccccc4n3)cc12` [Example 136, 2-Ethyl-7-methoxy-1-oxo-6-(2-quinolin-2-yl-ethoxy)-1,2-dihydro-isoquinoline-4-carboxylic acid butylamide] are “+ (100-220 μl min^−1 mg^−1)”, “∘ (>220 μl min^−1 mg^−1)” and less than 0.1 µM.

What is called IC50 is the concentration that inhibits the measured activity by half.
